Reference: US20100247579A1, “THERAPEUTIC AGENT FOR CANCER” (priority 2007, published 2010)

Columns and labels:
Format in all cases: cell-based, human
[1] = system: X-ray irradiated PBMCs derived from an allogeneic donor (stimulator cells); experiment: Allogeneic mixed lymphocyte reaction (MLR) using cultured lymphocytes (expansion fold)
[2] = system: PHA blast cells from non-autologous healthy donor; experiment: Non-autologous specific cytotoxicity after allogeneic MLR (Calcein-AM); details: E/T ratio 90
Description: The PBMCs derived from a non-autologous healthy donor, prepared in item (2) of Example 6, were adjusted with 5HRPMI to 1×10^6 cells/mL, and seeded to a 6-well cell culture plate (manufactured by Corning Inc.) in a volume of 3 mL each. IL-2 was added thereto to a final concentration of 100 U/mL and phytohemaaglutinin (manufactured by Sigma, hereinafter referred to as PHA) was added thereto to a final concentration of 2 μg/mL, and the cells were cultured at 37° C. in 5% CO2. On day 4 of culture, 12 mL of 5HRPMI was added to the cell culture and IL-2 was added thereto to a final concentration of 100 U/mL. Thereafter, the cell culture was dispensed into a 6-well cell culture plate so as to have a volume of 5 mL/well. The culture was continued until day 7 of culture, thereby preparing PHA blast (blastogenic) cells.
Using the cells on day 7 of culture prepared in item (3) of Example 6, non-autologous specific cytotoxicity was assayed in the same manner as in item (5) of Example 2, except that the PHA blast cells which had been subjected to blastogenic cells in item (4) of Example 6 were used as the target cells which were incubated at 37° C. for 2 hours after addition of calcein-AM. These calcein-labeled target cells were mixed with a 30-fold amount of K562 cells, and the cytotoxicity was assayed using these target cells for determining the cytotoxicity. […]

PBMC of cancer patient = experiment: Expansion of lymphocytes from PBMC of cancer patients in plate/flask, OKT3 alone versus OKT3 and CH-296
Description: The OKT3 and the CH-296 were immobilized to the culture equipment used in the following experiment. That is, an ACD-A solution containing OKT3 (final concentration: 5 μg/mL) and CH-296 (final concentration: 25 μg/mL) was added to a 12-well cell culture plate (manufactured by Corning Inc.) in a volume of 0.45 mL/well each, and incubated at 37° C. for 5 hours in 5% CO2. On this occasion, a group wherein only OKT3 was immobilized was set. The ACD-A solution containing the OKT3 or the OKT3 and the CH-296 was removed from the culture equipment by aspiration just before use, washed twice with DPBS and once with the RPMI 1640 medium, and then subjected to each experiment.
The PBMC of 0.53×10^6 cells derived from the cancer patient and separated in item (1) of Example 2 was suspended in 5.3 mL of 0.6% plasma containing KBM551 or 0.2% HSA/GT-T503, and added to the plate immobilized with the OKT3 or the OKT3 and the CH-296 as prepared in item (1) of Example 5. IL-2 was added thereto so as to have a final concentration of 200 U/mL and the mixture was incubated at 37° C. under 5% CO2 (on day 0 of culture). On day 4 of culture, the cell solution in each well was suspended, and a part of the suspension was diluted 8.3-fold using 0.6% plasma-containing KBM551 or 0.2% HSA/GT-T503. Then, 7.8 mL of the diluted solution was transferred to a 25 cm^2-cell culture flask (manufactured by Corning Inc.) to which nothing was immobilized, and added with IL-2 to each final concentration of 200 U/mL. The culture was continued, and on day 7, a plasma free KBM551 or a 0.2% HSA/GT-T503 was added to the culture solution in each group in an equivalent amount to dilute two-fold, and then added with IL-2 so as to have each final concentration of 200 U/mL. On day 10 of culture, the cell solution in each group was diluted two-fold using a plasma free KBM551 or a 0.2% HSA/GT-T503, and 15.6 mL each of the diluted solution was transferred to a fresh standing 25 cm^2-cell culture flask to which nothing was immobilized. IL-2 was added thereto so as to have a final concentration of 200 U/mL in each group. On days 10 and 14 from the start of culture, the number of viable cells was counted by the trypan blue staining method and an expansion fold was calculated by comparing the number of counted cells with the number of cells at the start of culture.

[3] = system: lymphocytes expanded from PBMC of cancer patient; experiment: Flow cytometry analysis of naive T-like cell phenotypes in expanded lymphocytes; details: Example 5
Description: The cells on days 10 and 14 of culture, prepared in item (3) of Example 2, were washed with DPBS containing 1% bovine serum albumin (BSA, manufactured by Sigma) (hereinafter referred to as 1% BSA/DPBS) or DPBS, and the cells were suspended in 1% BSA/DPBS, then FITC labeled mouse IgG1/RD1 labeled mouse IgG1/PC5 labeled mouse IgG1 (manufactured by Beckman Coulter Inc.) were added thereto as a negative control. Similarly, cells added with RD1 labeled mouse anti-human CD45RA antibody (manufactured by Beckman Coulter Inc.)/FITC labeled mouse anti-human CCR7 antibody (manufactured by R&D Systems), cells added with RD1 labeled mouse anti-human CD45RA antibody/FITC labeled mouse anti-human CD28 antibody (manufactured by eBioscience, Inc.)/PC5 labeled mouse anti-human CD27 antibody (manufactured by Beckman Coulter Inc.), and cells added with RD1 labeled mouse anti-human CD45RA antibody/FITC labeled mouse anti-human CCR7 antibody/PC5 labeled mouse anti-human CD62L antibody (manufactured by Beckman Coulter Inc.) were prepared. After addition of each antibody, incubation was carried out on ice for 30 minutes. After the incubation, the cells were washed with DPBS containing 0.1% BSA (hereinafter referred to as 0.1% BSA/DPBS), and suspended again in DPBS. The ratio of CCR7^+CD45RA^+ cells, CD27^+CD45RA^+ cells, CD28^+CD45RA^+ cells, CD62L^+CD45RA^+ cells, and CCR7^+CD62L^+CD45RA^+ cells of each cell population was calculated. […]
With respect to the cells on days 10 and 14 of culture, prepared in item (2) of Example 5, analysis of CCR7^+CD45RA^+ cells, CD62L^+CD45RA^+ cells, and CCR7^+CD62L^+CD45RA^+ cells was performed similarly to the method described in item (4) of Example 2.

[4] = PBMC of patient PT006 (breast cancer), KBM551
[5] = PBMC of patient PT008 (laryngeal cancer), KBM551
[6] = PBMC of patient PT012 (rectal cancer), KBM551
[7] = PBMC of patient PT003, 0.2% HSA/GT-T503

OKT3: Anti-CD3 monoclonal antibody (OKT3), immobilized alone to the culture equipment as initial stimulation
Expansion Rate (Fold) ([1]; lymphocytes of patient PT012, 10 days of lymphocyte expansion, responder:stimulator 1:0): x3.0 Fold | Expansion Rate (Fold) ([1]; lymphocytes of patient PT012, 10 days of lymphocyte expansion, responder:stimulator 1:1): x5.3 Fold | Expansion Rate (Fold) ([1]; lymphocytes of patient PT012, 14 days of lymphocyte expansion, responder:stimulator 1:0): x1.1 Fold | Expansion Rate (Fold) ([1]; lymphocytes of patient PT012, 14 days of lymphocyte expansion, responder:stimulator 1:1): x3.7 Fold | Cytotoxicity (%) ([2]; lymphocytes of patient PT012, 10 days of lymphocyte expansion): 15.2% | Cytotoxicity (%) ([2]; lymphocytes of patient PT012, 14 days of lymphocyte expansion): 27.6% | Expansion Fold (Fold) On Day 10 from Start of Culture (PBMC of cancer patient; PBMC of patient PT003 (breast cancer), 0.2% HSA/GT-T503): ×200 Fold | Expansion Fold (Fold) On Day 10 from Start of Culture (PBMC of cancer patient; PBMC of patient PT003 (breast cancer), KBM551): ×193 Fold | Expansion Fold (Fold) On Day 10 from Start of Culture (PBMC of cancer patient; [4]): ×202 Fold | Expansion Fold (Fold) On Day 14 from Start of Culture (PBMC of cancer patient; [4]): ×382 Fold | Expansion Fold (Fold) On Day 10 from Start of Culture (PBMC of cancer patient; [5]): ×119 Fold | Expansion Fold (Fold) On Day 14 from Start of Culture (PBMC of cancer patient; [5]): ×292 Fold | Expansion Fold (Fold) On Day 10 from Start of Culture (PBMC of cancer patient; [6]): ×281 Fold | Expansion Fold (Fold) On Day 14 from Start of Culture (PBMC of cancer patient; [6]): ×723 Fold | CCR7^+CD45RA^+ (%) On Day 10 from Start of Culture [3, 7]: 13.3% | CCR7^+CD62L^+CD45RA^+ (%) On Day 10 from Start of Culture [3, 7]: 13.1% | CD62L^+CD45RA^+ (%) On Day 10 from Start of Culture [3, 7]: 52.5% | CCR7^+CD45RA^+ (%) On Day 10 from Start of Culture ([3]; PBMC of patient PT003, KBM551): 5.4% | CCR7^+CD62L^+CD45RA^+ (%) On Day 10 from Start of Culture ([3]; PBMC of patient PT003, KBM551): 5.1% | CD62L^+CD45RA^+ (%) On Day 10 from Start of Culture ([3]; PBMC of patient PT003, KBM551): 50.9% | CCR7^+CD45RA^+ (%) On Day 10 from Start of Culture ([3]; PBMC of patient PT006, KBM551): 24.9% | CCR7^+CD45RA^+ (%) On Day 14 from Start of Culture ([3]; PBMC of patient PT006, KBM551): 36.9% | CCR7^+CD62L^+CD45RA^+ (%) On Day 10 from Start of Culture ([3]; PBMC of patient PT006, KBM551): 24.6% | CCR7^+CD62L^+CD45RA^+ (%) On Day 14 from Start of Culture ([3]; PBMC of patient PT006, KBM551): 36.7% | CD62L^+CD45RA^+ (%) On Day 10 from Start of Culture ([3]; PBMC of patient PT006, KBM551): 79.2% | CD62L^+CD45RA^+ (%) On Day 14 from Start of Culture ([3]; PBMC of patient PT006, KBM551): 75.7% | CCR7^+CD45RA^+ (%) On Day 10 from Start of Culture ([3]; PBMC of patient PT008, KBM551): 4.6% | CCR7^+CD45RA^+ (%) On Day 14 from Start of Culture ([3]; PBMC of patient PT008, KBM551): 4.2% | CCR7^+CD62L^+CD45RA^+ (%) On Day 10 from Start of Culture ([3]; PBMC of patient PT008, KBM551): 4.2% | CCR7^+CD62L^+CD45RA^+ (%) On Day 14 from Start of Culture ([3]; PBMC of patient PT008, KBM551): 3.9% | CD62L^+CD45RA^+ (%) On Day 10 from Start of Culture ([3]; PBMC of patient PT008, KBM551): 53.0% | CCR7^+CD45RA^+ (%) On Day 10 from Start of Culture ([3]; PBMC of patient PT012, KBM551): 19.4% | CCR7^+CD45RA^+ (%) On Day 14 from Start of Culture ([3]; PBMC of patient PT012, KBM551): 25.0% | CCR7^+CD62L^+CD45RA^+ (%) On Day 10 from Start of Culture ([3]; PBMC of patient PT012, KBM551): 17.1% | CCR7^+CD62L^+CD45RA^+ (%) On Day 14 from Start of Culture ([3]; PBMC of patient PT012, KBM551): 23.4% | CD62L^+CD45RA^+ (%) On Day 10 from Start of Culture ([3]; PBMC of patient PT012, KBM551): 56.0% | CD62L^+CD45RA^+ (%) On Day 14 from Start of Culture ([3]; PBMC of patient PT012, KBM551): 43.4%
